# Experimental data reported in patent publication US7645740B2, “Peptide sequence found in Laminin 5 for treating skin impairments” (Laboratoires d'Anjou Centre National de la Recherche …, priority 2004, dated 2010).
# Tests used:
# Assay type in all cases: cell-based, human
# [1] = test system: NHK-old (keratinocytes from elderly individuals); assay: Cell adhesion of NHK-old to immobilized peptide; conditions: 0 to 5 micrograms per well, 1 hour 37° C.
# Method: Dose-dependent cell adhesion of NHK-10 years versus NHK-71 years (A) and NHK-11 years versus NHK-60 years (B) peptides TALRIRATYHEY. The peptides were immobilized in 96-well plates at the concentrations given on the abscissa. 3.5×10^4 (A) cells and 4.3×10^4 (B) cells were deposited in each well and plates were incubated at 37° C. for 1 hour. After washing, attached cells were fixed and cell adhesion was measured as described in the methodology section (C). Cells were observed by phase contrast microscopy then photographed. Bar=50 μm.
# In order to obtain keratinocytes originating from biopsies taken from young and old individuals and taken from the same anatomical site, the inventors conducted a study of facial skin biopsies. The area of the face situated behind the ears was chosen in order to study only intrinsic aging and to overcome the effects of photo-induced aging. Surgery waste from cosmetic surgery (face lifts) in older individuals and surgery waste from detached ears in young children was collected. It is essential to use biopsies collected on the same day as surgery was performed in order to quickly place the epidermal keratinocytes in culture. Cells from biopsies on elderly individuals (60, 63 and 71 years) and young individuals (8, 10 and 11 years) were used for this study. The keratinocytes were obtained by means of the technique described by Boyce and Ham, 1985. […]
# NHK-young = assay: Cell proliferation test (XTT), NHK-young; conditions: peptide 0.05% and 0.1%, 5th hour
# Method: (§1) NHK-10 years and NHK-71 years were seeded in 96-well plates at a rate of 10,000 cells per well. After 24 hours, the culture medium was removed and replaced with serum-free medium containing the peptide quantities given in the graphs and reagent XTT. The plates were then placed in the incubator at 37° C. and absorbance readings were taken at 1 h, 2 h, 3 h, 4 h and 5 h. Peptide-free controls were carried out on the same plate.
# (§2) The effect of the peptide on cell proliferation was analysed with the aid of a calorimetric test (Cell Proliferation Kit XTT, Roche Diagnostics, Meylan, France) on the cells use for the cell adhesion test, i.e. HT1080, A431, HBL100 cells and normal human keratinocytes from young and elderly individuals.
# (§3) The chemical reaction used in the test is based on the production of NADPH by living cells, leading to the reduction of yellow tetrazolium XTT salts to orange formazan salts. Absorbance was measured at 490 nm using an ELISA plate reader. Cells were seeded in 96-well plates at a rate of 10,000 cells per well (6 wells/condition) in KBM-2 culture medium. After 24 hours in culture at 37° C. with 5% CO2, the culture medium was removed and replaced with serum-free medium containing the peptide quantities given in the graphs and the test reagent. The plates were then placed in the incubator at 37° C. and absorbance readings were taken at 1 h, 2 h, 3 h, 4 h and 5 h. […]
# HT1080 cells = assay: Cell proliferation test (XTT), HT1080; conditions: HT1080, peptide 0.5% and 1%, serum-free medium, 5th hour
# Method: as §1, with “HT1080 cells (A)” for “NHK-10 years”, “HBL100 cells (B)” for “NHK-71 years”
# as §2, §3
# NHK-old = assay: Cell proliferation test (XTT), NHK-old; conditions: peptide 0.05% and 0.1%, 5th hour
# Method: as §1, §2, §3
sequence,measurement,setting,value
TALRIRATYGEY (Human laminin 5) [Peptide 1],cell adhesion to immobilized peptide,[1],triggered dose-dependent cell adhesion
same,mean increase in proliferation compared to the control,NHK-young,≤ 7%
same,mean increase in cell proliferation compared to the control,HT1080 cells,8%
same,mean increase in proliferation compared to the control,NHK-old,≤ 7%
